Values of other authors in publication PMC8674003 (CPT: Pharmacometrics & Systems Pharmacology, 2021).
Positions of bridges follow the written chain, without caps; N, C: chain ends. Non-standard residues stand in square brackets, D forms with d. Residues, ends and D or L forms follow the SMILES beside them. *: point of attachment. X1 = CC[C@H](C)CCCCC(=O)*; Dab = NCC[C@H](N)C(=O)O

Assays:
[1] = components administered individually to Sprague-Dawley rats
[2] = IV
[3] = M4 (Wang et al.), 2 CMT, Phoenix NLME (7.0), 46 patients

Structure (SMILES) | Plasma protein binding, B1 compared with B2 [1] | Q, intercompartmental clearance [2, 3] [L/h] | V1, typical volume of central compartment [2, 3] [L] | V2, typical volume of peripheral compartment [2, 3] [L] | V, volume of distribution ([2]; M7 (Yu et al.), 1 CMT, NONMEM (7.4), 32 patients) [L]
CC[C@H](C)CCCCC(=O)N[C@@H](CCN)C(=O)N[C@H](C(=O)N[C@@H](CCN)C(=O)N[C@H]1CCNC(=O)[C@H]([C@@H](C)O)NC(=O)[C@H](CCN)NC(=O)[C@H](CCN)NC(=O)[C@H](CC(C)C)NC(=O)[C@@H](Cc2ccccc2)NC(=O)[C@H](CCN)NC1=O)[C@@H](C)O [polymyxin B1] (X1-[Dab]T[Dab][Dab][Dab][dF]L[Dab][Dab]T; lactam 4-C) | higher compared with B2 |  |  |  | 
CC[C@H](C)CCCCC(=O)N[C@@H](CCN)C(=O)N[C@H](C(=O)N[C@@H](CCN)C(=O)N[C@H]1CCNC(=O)[C@H]([C@@H](C)O)NC(=O)[C@H](CCN)NC(=O)[C@H](CCN)NC(=O)[C@H](CC(C)C)NC(=O)[C@@H](Cc2ccccc2)NC(=O)[C@H](CCN)NC1=O)[C@@H](C)O [polymyxin B, Polymyxin B] (X1-[Dab]T[Dab][Dab][Dab][dF]L[Dab][Dab]T; lactam 4-C) |  | 13.52 | 6.22 | 11.92 | 20.5
